Molecular target: T1, LATS2 (Homo sapiens, UniProt Q9NRM7)
T1 sequence (Q9NRM7 1-1088): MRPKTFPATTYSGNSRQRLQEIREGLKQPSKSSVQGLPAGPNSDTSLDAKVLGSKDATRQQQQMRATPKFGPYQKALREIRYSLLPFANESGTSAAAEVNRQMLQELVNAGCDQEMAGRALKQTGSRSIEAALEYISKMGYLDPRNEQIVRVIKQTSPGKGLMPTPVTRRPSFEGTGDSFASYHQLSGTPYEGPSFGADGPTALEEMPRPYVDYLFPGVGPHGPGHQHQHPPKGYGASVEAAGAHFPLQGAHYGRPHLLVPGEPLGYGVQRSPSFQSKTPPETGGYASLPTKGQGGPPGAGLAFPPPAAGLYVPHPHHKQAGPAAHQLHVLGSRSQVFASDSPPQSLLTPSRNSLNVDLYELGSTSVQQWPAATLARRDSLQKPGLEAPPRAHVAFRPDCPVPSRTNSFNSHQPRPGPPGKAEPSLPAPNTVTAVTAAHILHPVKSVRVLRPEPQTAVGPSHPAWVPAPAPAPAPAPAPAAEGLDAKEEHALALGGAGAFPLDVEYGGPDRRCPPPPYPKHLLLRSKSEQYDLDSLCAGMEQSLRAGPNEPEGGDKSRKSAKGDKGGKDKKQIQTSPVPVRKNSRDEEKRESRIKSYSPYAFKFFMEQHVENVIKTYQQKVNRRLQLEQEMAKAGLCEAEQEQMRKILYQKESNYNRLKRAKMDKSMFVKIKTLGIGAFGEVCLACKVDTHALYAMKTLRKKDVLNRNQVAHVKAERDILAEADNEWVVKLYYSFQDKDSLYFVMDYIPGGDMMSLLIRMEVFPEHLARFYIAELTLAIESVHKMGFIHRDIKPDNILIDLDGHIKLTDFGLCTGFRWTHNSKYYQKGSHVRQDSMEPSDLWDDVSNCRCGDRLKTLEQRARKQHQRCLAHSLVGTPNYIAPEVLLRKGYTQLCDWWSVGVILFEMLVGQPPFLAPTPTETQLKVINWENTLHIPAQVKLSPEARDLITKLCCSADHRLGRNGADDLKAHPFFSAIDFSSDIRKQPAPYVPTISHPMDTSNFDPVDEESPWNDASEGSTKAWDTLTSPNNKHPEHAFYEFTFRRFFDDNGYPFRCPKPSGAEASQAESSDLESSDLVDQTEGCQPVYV
Assay: RBC HotSpot kinase assay (33P-ATP, P81 filter-binding), LATS2
Format: biochemical
Conditions: biochemical kinase inhibition; read-out: LATS2 IC50
Summary of the method: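 Radiometric 33P-ATP kinase reaction in 20 mM Hepes pH 7.5, 10 mM MgCl2, 1 mM EGTA, 0.01% Brij35, 0.02 mg/ml BSA, 0.1 mM Na3VO4, 2 mM DTT, 1% DMSO. Compound preincubated with kinase and substrate 20 min, then 2 h at room temperature; P81 filter-binding read-out. IC50 (nM) from 10-point singlet curves.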

For Cc1cc(-c2ccnc3[nH]cc(C#N)c23)ccc1[C@@]1(O)[C@H](C)CN(C2CCS(=O)(=O)CC2)C[C@@H]1C [Compound 2003, 4-(4-((3S,4s,5R)-1-(1,1-dioxidotetrahydro-2H-thiopyran-4-yl)-4-hydroxy-3,5-dimethylpiperidin-4-yl)-3-methylphenyl)-1H-pyrrolo[2,3-b]pyridine-3-carbonitrile], the IC50 was 2.6 nM.

From US20250361230A1, “LATS Inhibitors and Uses Thereof” (The USA, as Represented by the Secretary, Dept. of Heath …, priority 2022, published 2025)
